Measurements published in patent US20030191342A1, “Process for the production of crystals of a benzoic acid derivative” (priority 2000, published 2003).

Tests used:
[1] = Grain size distribution by laser-type grain size analyzer (Microtrac FRA); type: physicochemical; details: crystals dispersed in aqueous Soprophor FL; for Average grain size 10%: 10% point of grain size distribution; for Average grain size 50%: 50% point of grain size distribution; for Average grain size 90%: 90% point of grain size distribution
Protocol: Grain size distributions of the crystals obtained in Example 1 and Comparative Example 1 were measured. A laser-type grain size analyzer (Microtrac FRA) was used. A 1% aqueous solution of Soprophor FL (3 ml, Rhone-Poulenc) was added with water (15 ml), and an appropriate amount of the crystals obtained in Example 1 or Comparative Example 1 were dispersed in the mixture to obtain a sample dispersion.

[2] = background art statement, no method given; cited from earlier work

Row | Compound | Average grain size 10% [1] [μm] | Average grain size 50% [1] [μm] | Average grain size 90% [1] [μm] | stability against heat, temperature, light and the like [2] | stability of crystalline form against physical impact [2]
1 | CC1(C)CCC(C)(C)c2cc(NC(=O)c3ccc(C(=O)O)cc3)ccc21 [Ethanol/water, 4-[(5,6,7,8-Tetrahydro-5,5,8,8-tetramethyl-2-naphthalenyl)carbamoyl]benzoic acid] | 16.38 | 39.74 | 86.92 |  | 
2 | CC1(C)CCC(C)(C)c2cc(NC(=O)c3ccc(C(=O)O)cc3)ccc21 [Methanol/water, 4-[(5,6,7,8-Tetrahydro-5,5,8,8-tetramethyl-2-naphthalenyl)carbamoyl]benzoic acid, reference compound] | 42.74 | 96.29 | 268.75 |  | 
3 | CC1(C)CCC(C)(C)c2cc(NC(=O)c3ccc(C(=O)O)cc3)ccc21 [crystal that melts at 233° C., 4-[(5,6,7,8-tetrahydro-5,5,8,8-tetramethyl-2-naphthalenyl)carbamoyl]benzoic acid] |  |  |  | high stability | high stability
4 | CC1(C)CCC(C)(C)c2cc(NC(=O)c3ccc(C(=O)O)cc3)ccc21 [crystal that melts at 193° C., 4-[(5,6,7,8-tetrahydro-5,5,8,8-tetramethyl-2-naphthalenyl)carbamoyl]benzoic acid, reference compound] |  |  |  |  | crystalline form readily occurs transition by physical impact
